Test results from article PMC9321043, “Synthesis, Structure–Activity Relationships, and Parasitological Profiling of Brussonol Derivatives as New Plasmodium falciparum Inhibitors” (Pharmaceuticals, 2022).

How the values were obtained:
P. falciparum K1 strain = test: Resistance assessment, K1 strain; type: cell-based; settings: Plasmodium falciparum
[1] = test system: P. falciparum TM90C6B strain; test: Resistance assessment, TM90C6B strain; type: cell-based; settings: Plasmodium falciparum
hemozoin formation = test: Hemozoin formation inhibition assay; type: biochemical; settings: hemin 25 µM, pH 4.8, 4 h, one experiment in triplicate
Protocol: 2. Hemozoin Formation Inhibition Assay
The hemozoin formation inhibition assay was performed as described previously.12 Briefly, serial 1:3 dilutions, in a 96‐well plate, wit h brussonol were made in a final volume of 20 μL in a concentration 10 times higher than the final concentration of the assay. Secondly, 90 μ L of freshly prepared hemin (at a final concentration of 25 μM) solution in 1M NaOAc/HOAc buffer pH 4.8 were added followed by addition of 90 μ L of 5.4 mg/L Tween 20 solution freshly prepared. The plates were let to stand for 4 hours at 37 °C followed by resuspension with multichannel pippete and read at 415 and 630 nm using a SpectraMAX Plus 384 plate reader (Molecular Devices Corp., Sunnyvale, CA).
Due to the absence of enough compound, this experiment wa s performed only once, but with internal triplicate. Chloroquine (CQ) and pyrimethamine (PYR) were used as positive and negative control of inhibition, respectively.
Inhibition (%) = 100 – 100 x [(Aco ntro l – Asample) / (Acontrol - Amin)] Acontrol is the difference of the absorbance at 415 and 630 nm of the negative control (Hemin +, Tween 20 ‐, Compound ‐); Amin is the difference of the absorbance at 415 and 630 nm of the positive control (Hemin +, Tween 20 +, Compound ‐ ); Asample is the difference of the absorbance at 415 and 630 nm of the sample. The hemozoin formation inhibition assay was performed to evaluate if brussonol act inhibiting hemozoin formation in P. falciparum. CQ, which is a well‐known inhibitor of hemozoin […]
Figure S1. Hemozoin formation inhibition assay. Different concentrations of CQ (black triangles), PYR (red squares) and brussonol (blue circles) were incubated with heme in triplicates. Th e absorbance was recorded at 415/630 nm to determine the hemozoin formation inhibition. […]

HepG2 cells = test: Cytotoxic test on immortalized cells, MTT; type: cell-based, human; settings: Homo sapiens, HepG2, 72 h
Protocol: The cytotoxic effects of brussonol and derivatives were evaluated against the human hepatocellular carcinoma cell line (HepG2). The cells were cultivated in an RPMI medium supplemented with 10% (v/v) fetal bovine serum and 25 µg/mL gentamicin. Conditions for the cultivation of these cells were 37 °C and 5% CO2, and every 2 days the supplemented medium was changed.
For experimental procedures, the cells were trypsinized and transferred to a 96-well plate at 30,000 cells per well (180 µL). The plate was incubated at 37 °C and 5% CO2 to allow cell adhesion. Next, 20 µL of serial dilutions of the compounds tested were added to the plate, with a range of concentrations tested from 400–6.25 µM. Cells without any compounds were used as a positive control for growing and the wells containing only medium were used as negative controls. The plate was incubated for 72 h at 37 °C and 5% CO2. After incubation, a microscope was used to determine the highest compound concentration to be used in the experiments (highest concentration without precipitation). A colorimetric assay was used to evaluate cytotoxicity. This assay is based on the metabolic cell activity in the presence of 3-(4,5-dimethylthiazol-2-yl)-2,5-diphenyltetrazolium bromide (MTT). Shortly after incubation, 20 µL of a solution of MTT at 5 mg/mL (solubilized in phosphate buffer) is added to each well. The plate is incubated for 3 to 4 h at 37 °C to allow MTT cleavage in living cells. Then, the supernatant is removed, and 100 µL of dimethylsulfoxide (DMSO) is added to solubilize the purple formazan crystals. The absorbance, which is proportional to the number of viable cells, was determined using a SpectraMAX Plus 384 plate reader (Molecular Devices Corp., Sunnyvale, CA) (λ = 570 nm). All compounds described here were purchased from Sigma-Aldrich (verificar local).
After the IC50 against the parasite and the human cell line is determined, it is possible to calculate the SI. It is calculated as the formula below:SI = IC50^HepG2/IC50^Pf.
For our reference, compounds with SI values higher than 10 are considered well tolerated by the cellular model used, and they are considered for further evaluation.

[2] = test system: cytosolic Ca^2+ in P. falciparum; test: [Ca2+]cyt measurements in isolated parasites loaded with Fluo-4AM; type: cell-based, Plasmodium falciparum
Protocol: One of the compounds identified in the structural similarity search was the cyclopiazonic acid (CPA) (Figure 8a). […] Because of that, brussonol activity on the modulation of the SERCA pump was investigated. To assess the effect of brussonol on calcium mobilization in P. falciparum intraerythrocytic stages, isolated parasites loaded with Fluo-4-AM were exposed to 10 μM brussonol in MOPS Ca^2+ buffer. […] To verify if the brussonol-elicited [Ca^2+]cyt increment originated from the endoplasmic reticulum (ER), targeting the PfSERCA pump, CPA was added before the addition of brussonol. […] In the brussonol-pretreated parasites, the addition of CPA still increased the cytosolic Ca^2 + level (30 ± 5 nM) (Figure 8d).
Isolated parasites were incubated for 1 h at 37 °C with 5 μM of Fluo-4AM in 1 mL MOPS buffer (116 mM NaCl, 5.4 mM KCl, 0.8 mM MgSO4, 5.5 mM D-glucose, 50 mM MOPS, and 2 mM CaCl2, pH 7.2), with 1 mM probenecid to minimize compartmentalization and extrusion of probe. The parasites were washed three times with the same buffer and transferred to a quartz cuvette. Intracellular calcium was measured continuously using a Hitachi F-7000 spectrofluorimeter (Tokyo, Japan) by measurement of the fluorescence (λex = 488 nm and λem = 530 nm) at 37 °C, under agitation. When indicated, 10 µM of cyclopiazonic acid (CPA) or 10 µM of brussonol were added to the cuvette. Maximal fluorescence (Fmax) was determined after the lysis of with digitonin 0.15% (m/v), and minimal fluorescence (Fmin) was determined by adding 25 mM EGTA in 3 M Tris, pH 8.8, until no further decrease in fluorescence was observed. The cytosolic calcium concentration ([Ca^2+]cyt) was calculated from the fluorescence data (F) using a Kd value of 345 nM using the formula:Ca^2 +cyt = 345 × [(F − Fmin)/(Fmax − F)]
The results (n = 2) were analyzed through One-Way ANOVA with Tukey post-test. All compounds described here were purchased from Sigma-Aldrich (verificar local).

CC(C)c1cc2c(c(O)c1O)C[C@@]13CCCC(C)(C)[C@@H]1C[C@@H]2O3 [Compound 1, brussonol]
IC50 (P. falciparum K1 strain): 6.6 ± 0.1 µM | IC50 [1]: 7 ± 2 µM | hemozoin formation inhibition (in words) (hemozoin formation; listed as Brussonol): do not act inhibiting hemozoin formation | hemozoin formation inhibition (in words) (hemozoin formation; listed as brussonol): did not interfere with hemozoin polymerization | IC50 (HepG2 cells): 67 ± 4 µM | [Ca^2+]cyt rise after CPA pretreatment ([2]; 10 µM brussonol added after 10 µM CPA reached a plateau): 19 ± 8 nM | [Ca^2+]cyt rise ([2]; 10 µM compound alone, MOPS Ca^2+ buffer, relative to basal level): 19 ± 4 nM
